# Measurements published in patent US20240368088A1, “EP4 ANTAGONIST COMPOUND AS WELL AS SALT, POLYMORPH AND USE THEREOF” (Wuhan Humanwell Innovative Drug Research and Development …, priority 2021, published 2024).
# Columns and labels:
# [1] = Solid state stability (XRPD and HPLC after uncovered storage); details: for Relative to starting (%): HPLC purity; for Purity (area %): HPLC
# Protocol: XRPD patterns are acquired on an X-ray powder diffraction analyzer manufactured by PANalytacal, and the scanning parameters are shown in Table A-1 below.
# The free acid crystal form A and the crystal form A of the tromethamine salt were left to stand uncovered for 1/4 weeks at 25° C./60% RH and 40° C./75% RH, respectively, and then the physical and chemical stability of the samples was tested by XRPD and HPLC.
# [2] = Hygroscopicity evaluation by dynamic vapor sorption (DVS); format: physicochemical
# Protocol: Dynamic vapor sorption (DVS) curves are acquired on a DVS IntrInsic in Surface Measurement Systems (SMS). The relative humidity at 25° C. is corrected with the deliquescence points of LiCI, Mg (NO3)2, and KCI.
# Starting at 0% RH, the test acquired the percentage change in mass of the sample when humidity changed (0% RH to 95% RH to 0% RH) at a constant temperature of 25° C.
# [3] = Dynamic solubility experiment at 37° C. in water, SGF, FaSSIF and FeSSIF; details: for solubility at 1 h / solubility at 2 h / solubility at 4 h / solubility at 24 h: 37 °C, thermodynamic from solid; for Crystal form change: XRPD of centrifuged solid; for pH: pH value of filtrate;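 for all read-outs here: at each sampling time, filtrate assayed by HPLC for concentration and for pH, centrifuged solid checked by XRPD, media SGF at pH 1.8, FaSSIF 6.5, FeSSIF 5.0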
# Protocol: In the test, the purity, dynamic solubility and stability are tested by an Agilent 1260 high-performance liquid chromatograph.
# The solid at a feeding concentration of 10 mg/mL (40 mg of solid in 4 mL of solvent, calculated as free acid) was rotationally mixed at 37° C., and the solubility of each sample in four systems of water, SGF, FaSSIF, and FeSSIF was determined at different time points (1 h, 2 h, 4 h, and 24 h). After sampling at each time point, the sample was centrifuged (at 10000 rpm) and filtered (through a 0.45 μm PTFE filter head), the filtrate was determined for HPLC concentration and pH value, and the centrifuged solid samples were tested for XRPD.
# 200.3 mg of NaCl and 105.0 mg of Triton X-100 were weighed out and added to a 50-mL volumetric flask, purified water was added, and the mixture was completely dissolved. 136 μL of concentrated hydrochloric acid (12 M) was added, and the pH was adjusted to 1.8 with 1 M hydrochloric acid or 1 M NaOH solution. Purified water was added, and the mixed solution was brought to volume.
# 0.34 g of anhydrous NaH2PO4, 0.44 g of NaOH, and 0.62 g of NaCl were weighed out and added to a 50-mL volumetric flask. Purified water was added, the mixture was completely dissolved, and the pH was adjusted to 6.5 with 1 M hydrochloric acid or 1 M NaOH solution. Purified water was added, and the mixed solution was brought to volume. 0.11 g of SIF powder was then weighed out, and the mixed solution was completely dissolved.
# 0.82 mL of glacial acetic acid, 0.40 g of NaOH, and 1.19 g of NaCl were added to a 50-mL volumetric flask. About 48 mL of purified water was added, the mixture was completely dissolved, and the pH was adjusted to 5.0 with 1 M hydrochloric acid or 1 M NaOH solution. Purified water was added, and the mixed solution was brought to volume. 0.56 g of SIF powder was then weighed out, and the mixed solution was completely dissolved.
# [4] = Crystal form conversion on drying at room temperature; format: physicochemical
# Protocol: The free acid crystal form A was dissolved in MIBK (methyl isobutyl ketone), and then the mixture was subjected to gas-liquid diffusion in an n-pentane atmosphere to obtain free acid crystal form B (XRPD pattern thereof shown in FIG. 5).
# [5] = 25° C./60% RH/uncovered, 1 week
# [6] = 25° C./60% RH/uncovered, 4 weeks
# [7] = 40° C./75% RH/uncovered, 1 week
# [8] = 40° C./75% RH/uncovered, 4 weeks
# [9] = SGF, pH 1.8, simulated gastric fluid
structure (smiles),measurement,setting,value
"C[C@H](NC(=O)c1c(C(F)F)nn(C)c1Oc1cccc(C(C)(F)F)c1)c1ccc(C(=O)O)cc1 [Free acid crystal form A, (S)-4-(1-(5-(3-(1,1-difluoroethyl)phenoxy)-3-(difluoromethyl)-1-methyl-1H-pyrazole-4-carboxamide)ethyl)benzoic acid]",physicochemical stability (summary statement),[1],good physicochemical stability
same,HPLC purity change after placement (in words),"[1]; 25° C./60% RH and 40° C./75% RH, uncovered, 1/4 weeks",not significantly changed
same,crystal form change after placement (in words),"[1]; 25° C./60% RH and 40° C./75% RH, uncovered, 1/4 weeks, XRPD",not changed
same,Relative to starting (%),[1]; [5],99.81%
same,Relative to starting (%),[1]; [6],99.83%
same,Relative to starting (%),[1]; [7],99.79%
same,Relative to starting (%),[1]; [8],99.77%
same,Purity (area %),[1]; [5],94.14 area %
same,Purity (area %),[1]; [6],94.19 area %
same,Purity (area %),[1]; [7],94.15 area %
same,Purity (area %),[1]; [8],94.13 area %
same,Purity (area %),[1]; Starting,94.35 area %
same,hygroscopicity (in words),"[2]; DVS, 25° C./80% RH",almost no hygroscopicity
same,vapor sorption,"[2]; DVS, 25° C./80% RH",0.07%
same,crystal form after DVS test,"[2]; XRPD before and after DVS, 0% RH to 95% RH to 0% RH, 25° C.",unchanged
same,hygroscopicity (summary statement),[2]; beneficial effects summary,relatively low hygroscopicity
same,solubility at 1 h,"[3]; FaSSIF, pH 6.5, fassif",1960 µg/mL
same,solubility at 2 h,"[3]; FaSSIF, pH 6.5, fassif",1830 µg/mL
same,solubility at 4 h,"[3]; FaSSIF, pH 6.5, fassif",1860 µg/mL
same,solubility at 24 h,"[3]; FaSSIF, pH 6.5, fassif",1590 µg/mL
same,solubility at 1 h,"[3]; FeSSIF, pH 5, fessif",210 µg/mL
same,solubility at 2 h,"[3]; FeSSIF, pH 5, fessif",220 µg/mL
same,solubility at 4 h,"[3]; FeSSIF, pH 5, fessif",220 µg/mL
same,solubility at 24 h,"[3]; FeSSIF, pH 5, fessif",210 µg/mL
same,solubility at 1 h,[3]; [9],40 µg/mL
same,solubility at 2 h,[3]; [9],40 µg/mL
same,solubility at 4 h,[3]; [9],50 µg/mL
same,solubility at 24 h,[3]; [9],40 µg/mL
same,Crystal form change,"[3]; FaSSIF, 37° C., 1 h",No
same,Crystal form change,"[3]; FaSSIF, 37° C., 2 h",No
same,Crystal form change,"[3]; FaSSIF, 37° C., 4 h",No
same,Crystal form change,"[3]; FaSSIF, 37° C., 24 h",No
same,Crystal form change,"[3]; FeSSIF, 37° C., 1 h, Yes^a: converted to the free acid crystal form A",No
same,Crystal form change,"[3]; FeSSIF, 37° C., 2 h, Yes^a: converted to the free acid crystal form A",No
same,Crystal form change,"[3]; FeSSIF, 37° C., 4 h, Yes^a: converted to the free acid crystal form A",No
same,Crystal form change,"[3]; FeSSIF, 37° C., 24 h, Yes^a: converted to the free acid crystal form A",No
same,Crystal form change,"[3]; H2O, 37° C., 1 h",No
same,Crystal form change,"[3]; H2O, 37° C., 2 h",No
same,Crystal form change,"[3]; H2O, 37° C., 4 h",No
same,Crystal form change,"[3]; H2O, 37° C., 24 h",No
same,Crystal form change,"[3]; SGF, 37° C., 1 h, Yes^a: converted to the free acid crystal form A",No
same,Crystal form change,"[3]; SGF, 37° C., 2 h, Yes^a: converted to the free acid crystal form A",No
same,Crystal form change,"[3]; SGF, 37° C., 4 h, Yes^a: converted to the free acid crystal form A",No
same,Crystal form change,"[3]; SGF, 37° C., 24 h, Yes^a: converted to the free acid crystal form A",No
same,pH,"[3]; FaSSIF, 37° C., 1 h",6.1
same,pH,"[3]; FaSSIF, 37° C., 2 h",6.1
same,pH,"[3]; FaSSIF, 37° C., 4 h",6.1
same,pH,"[3]; FaSSIF, 37° C., 24 h",6.1
same,pH,"[3]; FeSSIF, 37° C., 1 h",4.9
same,pH,"[3]; FeSSIF, 37° C., 2 h",4.9
same,pH,"[3]; FeSSIF, 37° C., 4 h",4.9
same,pH,"[3]; FeSSIF, 37° C., 24 h",5.0
same,pH,"[3]; H2O, 37° C., 1 h",8.3
same,pH,"[3]; H2O, 37° C., 2 h",8.4
same,pH,"[3]; H2O, 37° C., 4 h",8.3
same,pH,"[3]; H2O, 37° C., 24 h",4.8
same,pH,"[3]; SGF, 37° C., 1 h",1.8
same,pH,"[3]; SGF, 37° C., 2 h",1.8
same,pH,"[3]; SGF, 37° C., 4 h",1.8
same,pH,"[3]; SGF, 37° C., 24 h",1.8
same,solubility at 1 h,[3]; water,80 µg/mL
same,solubility at 2 h,[3]; water,80 µg/mL
same,solubility at 4 h,[3]; water,90 µg/mL
same,solubility at 24 h,[3]; water,130 µg/mL
same,crystal form after the vehicle solubility tests,"[3]; water, SGF, FaSSIF, FeSSIF, 37° C., XRPD",unchanged
"C[C@H](NC(=O)c1c(C(F)F)nn(C)c1Oc1cccc(C(C)(F)F)c1)c1ccc(C(=O)O)cc1 [free acid crystal form B, (S)-4-(1-(5-(3-(1,1-difluoroethyl)phenoxy)-3-(difluoromethyl)-1-methyl-1H-pyrazole-4-carboxamide)ethyl)benzoic acid]",crystal form after being dried at room temperature,[4],converted into the free acid crystal form A
